Laboratory results reported in patent US20220378740A1, “COMPOSITIONS AND METHODS OF MAKING EXPANDED HEMATOPOIETIC STEM CELLS USING DERIVATIVES OF CARBAZOLE” (Transfusion Health, LLC, priority 2019, published 2022).

Key:
[1] = system: HSCs derived from cord blood; assay: Long-term (14 day) expansion of hematopoietic stem cells derived from cord blood; format: cell-based, human; conditions: 14 days in culture; Compound 2.001 at 10 μM, Compound 2.002 at 1 μM, Compound 2.003 at 10 μM
Method: (§1) CD34+ cells from cord blood were purchased from STEMCELL Technologies. Primary human CD34+ cells were isolated by the supplier from cord blood samples using positive immunomagnetic separation techniques. Cells were thawed and gradually brought to room temperature. Samples were washed, then placed in overnight culture in StemSpan with 100 ng/ml each of FLT3L, TPO, SCF, and IL-6. Eighteen to twenty-four hours later (day 1), cells were counted and immunophenotyped (flow cytometry on an Invitrogen Attune N×T cytometer).
(§2) All incubations for this experiment took place at 3%˜ oxygen (controlled by nitrogen) and […]. Following seven days of culture, cells from wells were collected and phenotypes were analyzed (flow cytometry on an Invitrogen Attune N×T cytometer).
Cells were cultured to seven days as described in Example 5. Following seven days in culture, 25% of cells from selected wells were passaged to 12-well plates (2 ml total volume), with conditions for these wells prepared as on day 1. Wells selected were: Compound 2.001 at 10 μM, Compound 2.002 at 1 μM, Compound 2.003 at 10 μM, and base conditions with vehicle control (DMSO). Cells were then allowed seven further days of expansion prior to analysis at day 14. Cell numbers calculated at day 14 account for the passaging of the cells at day seven.

[2] = system: CD34+ cells from cord blood; assay: Expansion of cord blood-derived CD34+ cells in culture, fold change days 1 to 7 (flow cytometry); format: cell-based, human; conditions: relative to vehicle control (DMSO), 3% oxygen
Method: as §1
Approximately 1000 live cells were plated into each well of 96-well plates (total volume 200 μl); exact cell numbers dispensed per well were quantified with flow cytometry for later calculations.
Media for testing compounds of Formula I, except for compound 2.015, was prepared using StemSpan SFEM (STEMCELL Technologies). Media for testing compound 2.015 was prepared using Alpha-MEM without phenol red (Gibco) with 10% (v/v) heat inactivated fetal bovine serum (FBS). All other treatments are the same for all tested compounds. Culture conditions also included an antibiotic solution that includes penicillin, streptomycin, and amphotericin B to avoid contamination. Additional media components and concentrations used for the compounds tested are described in Table 2.
as §2
The graphs in FIG. 1-5 report the fold change in cells between days 1 and 7. Each point in the figures reports the average fold change of the indicated number of replicates at the noted concentration of the compound of Formula I tested. Error bars display the maximum and minimum fold change measured at that concentration. The dashed line reports the expansive effect of the base conditions (i.e. vehicle control).
Table 3, below, summarizes the relative expansive effects of Compounds 2.001 to 2.004 and 2.015 at the indicated concentration. It is calculated as shown below: […]

[3] = 3.162 μM compound, StemSpan SFEM
[4] = 2.819 μM compound, Alpha-MEM without phenol red with 10% FBS

SMILES	expansion of HSCs from cord blood in extended culture [1]	CD34 effect (relative expansive effect on CD34+ cells) ([2]; 1 μM compound, StemSpan SFEM)	CD90 effect (relative expansive effect on CD34+/CD133+/CD90+ cells) ([2]; 1 μM compound, StemSpan SFEM)	other results
CC(=O)Nc1ccc2c(c1)[nH]c1ccccc12 [Compound 2.001, N-(9H-carbazol-2-yl)acetamide]	expand HSCs from cord blood for at least 14 days in culture			CD34 effect (relative expansive effect on CD34+ cells) ([2]; 10 μM compound, StemSpan SFEM): ++++ (1.8 ≤ × < 2.2); CD90 effect (relative expansive effect on CD34+/CD133+/CD90+ cells) ([2]; 10 μM compound, StemSpan SFEM): +++++ (2.2 ≤×)
CC(C)(C)C(=O)Nc1ccc2c(c1)[nH]c1ccccc12 [Compound 2.002, N-(9H-carbazol-2-yl)-2,2-dimethylpropanamide]	expand HSCs from cord blood for at least 14 days in culture	++++ (1.8 ≤ × < 2.2)	++++ (1.8 ≤ × < 2.2)	
CC(=O)Nc1ccc2c(c1)oc1ccccc12 [Compound 2.003, N-{8-oxatricyclo[7.4.0.0^2,7]trideca-1(13),2(7),3,5,9,11-hexaen-5-yl}acetamide]	expand HSCs from cord blood for at least 14 days in culture			CD34 effect (relative expansive effect on CD34+ cells) [2, 3]: ++++ (1.8 ≤ × < 2.2); CD90 effect (relative expansive effect on CD34+/CD133+/CD90+ cells) [2, 3]: ++++ (1.8 ≤ × < 2.2)
CC(C)(C)C(=O)Nc1ccc2c(c1)oc1ccccc12 [Compound 2.004, 2,2-dimethyl-N-{8-oxatricyclo[7.4.0.0^2,7]trideca-1(13),2(7),3,5,9,11-hexaen-5-yl}propanamide]		+++ (1.6 ≤ × < 1.8)	++ (1.2 ≤ × < 1.6)	
COc1cc2c(cc1N)oc1ccccc12 [Compound 2.015]				CD34 effect (relative expansive effect on CD34+ cells) [2, 4]: + (1 < × < 1.2); CD90 effect (relative expansive effect on CD34+/CD133+/CD90+ cells) [2, 4]: + (1 < × < 1.2)
